# Experimental data from PMC5399447, “Neuroprotective pentapeptide CN-105 is associated with reduced sterile inflammation and improved functional outcomes in a traumatic brain injury murine model” (Scientific Reports, 2017).
# Tested on: 84 genes related to inflammatory and autoimmune processes
# Test: Mouse Inflammatory Response and Autoimmunity PCR Array, whole brain
# Format: in vivo
# Experimental: Frozen, pulverized whole brain tissue was processed for RNA extraction from a separate cohort of treated and untreated injured animals on days 1 post-injury(CN-105, n = 4; vehicle, n = 3; Control(sham-operated), n = 3). Total RNA was extracted from frozen, pulverized whole brain tissue using RNeasy Lipid Tissue Mini Kit(Qiagen, Valencia, CA). RNA quantity and quality was assessed with the NanoDrop ND-1000 spectrophotometer(NanoDrop Technologies, Inc., Wilmington, DE) and by agarose gel electrophoresis. Only samples with a 260/280 ratio between 1.9–2.1, and a 260/230 ratio greater than 2.0, were further processed. First strand complementary DNA(cDNA) was generated from 2 μg total RNA using the RT[2] First strand kit(SABiosciences, Frederick, MD.)
# Gene expression was measured using the Mouse Inflammatory Response and Autoimmunity PCR Array(SABiosciences, Frederick, MD), which profiles the expression of 84 genes related to inflammatory and autoimmune processes. RT-PCR was performed according to manufacturer’s instructions Quality of the cDNA and PCR efficiency was verified by housekeeping genes and RT-PCR controls included in the PCR Array.
# Raw RT-PCR data were analyzed using the Web-Based PCR Array Data Analysis software(SABiosciences). ΔCt values and ΔΔCt - based fold-change were calculated from raw threshold cycle data, using beta-actin and glyceraldehyde 3-phosphate dehydrogenase(GAPDH) as internal standards for normalization. Fold changes were then normalized against sham-operated controls.
# [1] = TBI + CN-105 0.05 mg/kg iv 2 h post injury, brain 24 h
# [2] = TBI CN-105 vs TBI vehicle, brain 24 h post TBI
substance,measurement,setting,value
Ac-VSRRR-amide [CN-105],"Bcl6 ΔCt value, TBI-CN-105",[1],5.7E − 01
same,"C3ar1 ΔCt value, TBI-CN-105",[1],1.2E − 01
same,"C3 ΔCt value, TBI-CN-105",[1],1.9E − 03
same,"C4b ΔCt value, TBI-CN-105",[1],5.9E − 01
same,"Ccl1 ΔCt value, TBI-CN-105",[1],9.1E − 01
same,"Ccl2 ΔCt value, TBI-CN-105",[1],2.5E − 02
same,"Ccl3 ΔCt value, TBI-CN-105",[1],8.9E − 03
same,"Ccl4 ΔCt value, TBI-CN-105",[1],1.2E − 02
same,"Ccl5 ΔCt value, TBI-CN-105",[1],3.4E − 03
same,"Ccl7 ΔCt value, TBI-CN-105",[1],3.7E − 03
same,"Ccl8 ΔCt value, TBI-CN-105",[1],4.2E − 03
same,"Ccl11 ΔCt value, TBI-CN-105",[1],1.8E − 01
same,"Ccl12 ΔCt value, TBI-CN-105",[1],1.3E − 02
same,"Ccl17 ΔCt value, TBI-CN-105",[1],1.0E − 03
same,"Ccl19 ΔCt value, TBI-CN-105",[1],3.4E − 03
same,"Ccl20 ΔCt value, TBI-CN-105",[1],7.9E − 02
same,"Ccl22 ΔCt value, TBI-CN-105",[1],2.2E − 02
same,"Ccl24 ΔCt value, TBI-CN-105",[1],5.1E − 03
same,"Ccl25 ΔCt value, TBI-CN-105",[1],9.5E − 02
same,"Ccr1 ΔCt value, TBI-CN-105",[1],3.0E − 04
same,"Ccr2 ΔCt value, TBI-CN-105",[1],1.5E − 03
same,"Ccr3 ΔCt value, TBI-CN-105",[1],1.1E − 01
same,"Ccr4 ΔCt value, TBI-CN-105",[1],3.1E − 02
same,"Ccr7 ΔCt value, TBI-CN-105",[1],3.4E − 02
same,"Cd40lg ΔCt value, TBI-CN-105",[1],4.2E − 03
same,"Cd40 ΔCt value, TBI-CN-105",[1],2.1E − 02
same,"Cebpb ΔCt value, TBI-CN-105",[1],2.4E − 01
same,"Crp ΔCt value, TBI-CN-105",[1],7.1E − 04
same,"Csf1 ΔCt value, TBI-CN-105",[1],1.2E − 02
same,"Cxcl1 ΔCt value, TBI-CN-105",[1],1.8E − 03
same,"Cxcl2 ΔCt value, TBI-CN-105",[1],1.7E − 03
same,"Cxcl3 ΔCt value, TBI-CN-105",[1],1.6E + 00
same,"Cxcl5 ΔCt value, TBI-CN-105",[1],1.4E + 00
same,"Cxcl9 ΔCt value, TBI-CN-105",[1],2.2E − 03
same,"Cxcl10 ΔCt value, TBI-CN-105",[1],5.3E − 04
same,"Cxcl11 ΔCt value, TBI-CN-105",[1],8.8E − 03
same,"Cxcr4 ΔCt value, TBI-CN-105",[1],9.0E − 02
same,"Fasl ΔCt value, TBI-CN-105",[1],6.7E − 04
same,"Flt3l ΔCt value, TBI-CN-105",[1],7.1E − 04
same,"Fos ΔCt value, TBI-CN-105",[1],1.7E − 01
same,"Hdac4 ΔCt value, TBI-CN-105",[1],8.3E − 01
same,"Ifng ΔCt value, TBI-CN-105",[1],4.3E − 03
same,"Il1a ΔCt value, TBI-CN-105",[1],5.4E − 02
same,"Il1b ΔCt value, TBI-CN-105",[1],4.6E − 01
same,"Il1f10 ΔCt value, TBI-CN-105",[1],5.5E − 03
same,"Il1r1 ΔCt value, TBI-CN-105",[1],7.5E − 04
same,"Il1rap ΔCt value, TBI-CN-105",[1],8.2E − 04
same,"Il1rn ΔCt value, TBI-CN-105",[1],1.7E − 03
same,"Il6ra ΔCt value, TBI-CN-105",[1],1.6E − 01
same,"Il6 ΔCt value, TBI-CN-105",[1],1.8E − 03
same,"Il7 ΔCt value, TBI-CN-105",[1],5.9E − 01
same,"Il8ra ΔCt value, TBI-CN-105",[1],2.6E − 03
same,"Il8rb ΔCt value, TBI-CN-105",[1],5.4E − 03
same,"Il9 ΔCt value, TBI-CN-105",[1],1.4E − 02
same,"Il10rb ΔCt value, TBI-CN-105",[1],2.2E − 02
same,"Il10 ΔCt value, TBI-CN-105",[1],1.6E − 03
same,"Il18rap ΔCt value, TBI-CN-105",[1],6.6E − 03
same,"Il18 ΔCt value, TBI-CN-105",[1],9.6E − 03
same,"Il22ra2 ΔCt value, TBI-CN-105",[1],8.2E − 02
same,"Il22 ΔCt value, TBI-CN-105",[1],3.4E − 03
same,"Il23a ΔCt value, TBI-CN-105",[1],2.3E − 02
same,"Il23r ΔCt value, TBI-CN-105",[1],8.0E − 04
same,"Itgb2 ΔCt value, TBI-CN-105",[1],5.3E − 02
same,"Kng1 ΔCt value, TBI-CN-105",[1],8.5E − 03
same,"Lta ΔCt value, TBI-CN-105",[1],1.1E − 01
same,"Ltb ΔCt value, TBI-CN-105",[1],3.9E − 02
same,"Ly96 ΔCt value, TBI-CN-105",[1],7.7E − 02
same,"Myd88 ΔCt value, TBI-CN-105",[1],6.6E − 03
same,"Nfatc3 ΔCt value, TBI-CN-105",[1],3.2E + 00
same,"Nfkb1 ΔCt value, TBI-CN-105",[1],5.3E − 03
same,"Nos2 ΔCt value, TBI-CN-105",[1],1.6E − 01
same,"Nr3c1 ΔCt value, TBI-CN-105",[1],1.2E − 02
same,"Ripk2 ΔCt value, TBI-CN-105",[1],2.1E − 01
same,"Tirap ΔCt value, TBI-CN-105",[1],5.3E − 02
same,"Tlr1 ΔCt value, TBI-CN-105",[1],7.4E − 03
same,"Tlr2 ΔCt value, TBI-CN-105",[1],9.1E − 03
same,"Tlr3 ΔCt value, TBI-CN-105",[1],5.8E − 02
same,"Tlr4 ΔCt value, TBI-CN-105",[1],2.0E − 02
same,"Tlr5 ΔCt value, TBI-CN-105",[1],1.7E − 03
same,"Tlr6 ΔCt value, TBI-CN-105",[1],7.0E − 03
same,"Tlr7 ΔCt value, TBI-CN-105",[1],9.1E − 01
same,"Tnf ΔCt value, TBI-CN-105",[1],3.8E − 02
same,"Tnfsf14 ΔCt value, TBI-CN-105",[1],9.0E − 03
same,"Tollip ΔCt value, TBI-CN-105",[1],5.1E − 02
same,Bcl6 Fold Change,[2],921
same,C3 Fold Change,[2],1.5
same,C3ar1 Fold Change,[2],−3.1
same,C4b Fold Change,[2],−1.1
same,Ccl1 Fold Change,[2],1.5
same,Ccl2 Fold Change,[2],−2.6
same,Ccl3 Fold Change,[2],1.5
same,Ccl4 Fold Change,[2],−2.6
same,Ccl5 Fold Change,[2],−1.6
same,Ccl7 Fold Change,[2],−1.2
same,Ccl8 Fold Change,[2],31.2
same,Ccl11 Fold Change,[2],−3.6
same,Ccl12 Fold Change,[2],64.2
same,Ccl17 Fold Change,[2],−1.7
same,Ccl19 Fold Change,[2],−5.2
same,Ccl20 Fold Change,[2],−1.5
same,Ccl22 Fold Change,[2],60.2
